For data set [1], the target named is T1, Tyrosine-protein kinase SYK (Homo sapiens, UniProt P43405).
The target in data set [2] is Calcium/calmodulin-dependent protein kinase type 1D (Homo sapiens) (UniProt Q8IU85).
Data set [3] has as its target T1, Tyrosine-protein kinase SYK. The settings on record: 10 uM.
The target in data set [4] is Death-associated protein kinase 3 (Homo sapiens) (UniProt O43293). The settings on record: 10 uM.
Data set [5] concerns the target Glycogen synthase kinase-3 beta (Homo sapiens) (UniProt P49841). The settings on record: 10 uM.
Data set [6] addresses T2, Calcium/calmodulin-dependent protein kinase type IV (Homo sapiens) (UniProt Q16566).
T2 sequence (whole entry): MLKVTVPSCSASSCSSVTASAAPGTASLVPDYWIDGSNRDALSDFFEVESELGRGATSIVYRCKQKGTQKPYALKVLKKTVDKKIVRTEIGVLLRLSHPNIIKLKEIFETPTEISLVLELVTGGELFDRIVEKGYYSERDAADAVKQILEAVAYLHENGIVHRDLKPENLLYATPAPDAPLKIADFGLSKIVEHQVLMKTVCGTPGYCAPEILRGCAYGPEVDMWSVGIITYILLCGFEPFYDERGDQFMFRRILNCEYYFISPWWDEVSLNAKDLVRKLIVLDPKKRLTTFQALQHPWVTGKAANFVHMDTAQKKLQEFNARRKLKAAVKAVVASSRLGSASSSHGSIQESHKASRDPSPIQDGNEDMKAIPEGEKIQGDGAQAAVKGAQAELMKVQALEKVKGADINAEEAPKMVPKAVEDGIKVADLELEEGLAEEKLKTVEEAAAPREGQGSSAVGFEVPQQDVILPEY
The settings on record: 10 uM.

Data set [7] deals with T3, Serine/threonine-protein kinase DCLK1 (Homo sapiens) (UniProt O15075).
T3 sequence (whole entry): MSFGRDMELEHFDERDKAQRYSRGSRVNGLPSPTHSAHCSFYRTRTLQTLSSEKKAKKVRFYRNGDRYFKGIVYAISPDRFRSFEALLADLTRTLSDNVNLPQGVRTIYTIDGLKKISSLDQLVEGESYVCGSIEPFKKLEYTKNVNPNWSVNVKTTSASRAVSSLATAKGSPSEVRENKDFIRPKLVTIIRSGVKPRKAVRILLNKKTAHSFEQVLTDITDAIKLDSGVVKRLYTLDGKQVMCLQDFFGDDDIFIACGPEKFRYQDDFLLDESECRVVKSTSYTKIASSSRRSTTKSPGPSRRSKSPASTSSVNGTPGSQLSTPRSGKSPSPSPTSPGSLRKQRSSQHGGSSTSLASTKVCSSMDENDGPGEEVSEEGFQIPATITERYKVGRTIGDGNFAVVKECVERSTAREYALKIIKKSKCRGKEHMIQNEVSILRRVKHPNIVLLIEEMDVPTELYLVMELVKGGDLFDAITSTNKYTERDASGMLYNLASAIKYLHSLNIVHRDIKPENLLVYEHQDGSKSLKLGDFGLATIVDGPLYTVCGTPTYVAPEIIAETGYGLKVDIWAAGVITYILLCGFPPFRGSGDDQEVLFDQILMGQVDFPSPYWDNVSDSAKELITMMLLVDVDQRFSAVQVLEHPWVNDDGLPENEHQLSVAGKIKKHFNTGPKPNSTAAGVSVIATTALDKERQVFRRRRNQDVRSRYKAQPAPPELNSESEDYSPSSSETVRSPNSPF
The conditions noted are these: 10 uM.

Data set [8] can be described thus: Drug metabolism in rat microsomes. It is filed as ADME, Microsome. The settings on record: read-out: Drug metabolism.
Data set [9] is described as follows: Drug metabolism in human microsomes. Type of data set: ADME, Microsome. The conditions noted are these: read-out: Drug metabolism.
Data set [10] in a line: Drug metabolism in rat hepatocytes assessed per million cells. It is filed as ADME, cell-based, Hepatocyte.
Data set [11] addresses T4, Cytochrome P450 1A2 (Homo sapiens, UniProt P05177).
T4 sequence (P05177 whole entry): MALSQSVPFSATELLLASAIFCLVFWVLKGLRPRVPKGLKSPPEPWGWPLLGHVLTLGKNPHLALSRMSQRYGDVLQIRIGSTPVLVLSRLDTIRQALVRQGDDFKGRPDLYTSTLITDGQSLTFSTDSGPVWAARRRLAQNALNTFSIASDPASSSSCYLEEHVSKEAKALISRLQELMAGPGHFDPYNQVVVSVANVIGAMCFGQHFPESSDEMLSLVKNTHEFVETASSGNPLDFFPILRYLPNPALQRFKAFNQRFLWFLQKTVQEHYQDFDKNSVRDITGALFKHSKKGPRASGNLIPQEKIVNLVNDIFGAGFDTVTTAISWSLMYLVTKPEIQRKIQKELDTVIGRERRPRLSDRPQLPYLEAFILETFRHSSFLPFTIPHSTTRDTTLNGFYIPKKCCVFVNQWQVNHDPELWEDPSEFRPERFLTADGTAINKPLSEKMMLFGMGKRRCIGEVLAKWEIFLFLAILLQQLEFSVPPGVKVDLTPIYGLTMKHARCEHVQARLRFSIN
In words: Inhibition of CYP1A2 (unknown origin). It is filed as ADME.

Data set [12] deals with Cytochrome P450 2D6 (Homo sapiens, UniProt P10635). The data set is described as follows: Inhibition of CYP2D6 (unknown origin). It is filed as ADME.
Data set [13] deals with Cytochrome P450 3A4 (Homo sapiens, UniProt P08684). In words: Inhibition of CYP3A4 (unknown origin). Type of data set: ADME.
Data set [14] is described as follows: Drug excretion in Crl:CD Sprague-Dawley rat urine. It is filed as ADME. The settings on record: in vivo.
Data set [15] can be described thus: Drug metabolism in rat plasma assessed as oxidation. It is filed as ADME, cell-free.
Data set [16] is described as follows: Drug metabolism in rat plasma assessed as acetylation. Type of data set: ADME, cell-free.
Data set [17] is described as follows: Drug metabolism in rat plasma assessed as amide hydrolysis. It is filed as ADME, cell-free.
Data set [18] has as its system Mus musculus. In words: Antidiabetic activity in diet induced obese C57Bl/6J mouse model assessed as reduction in plasma insulin level at 25 to 50 mg/kg, po administered 4 hrs prior to glucose stimulation and measured after 10 to 90 mins by OGTT. It is filed as functional, organism-based.
The test system of data set [19] is Mus musculus. The data set is described as follows: Antidiabetic activity in diet induced obese C57Bl/6J mouse model assessed as reduction in blood glucose level at 25 to 50 mg/kg, po administered 4 hrs prior to glucose stimulation and measured after 10 to 90 mins by OGTT. It is filed as functional, organism-based.
For data set [20], the system named is Mus musculus. In words: Antidiabetic activity in diet induced obese C57Bl/6J mouse model assessed as reduction in baseline blood glucose level at 25 mg/kg, po administered twice daily for 14 days followed by glucose challenge at 4 hrs post last dose and measured after 10 to 90 mins by OGTT. Type of data set: functional, organism-based.
Data set [21] relates to Mus musculus. In words: Antidiabetic activity in diet induced obese C57Bl/6J mouse model assessed as reduction in plasma insulin level at 25 mg/kg, po administered twice daily for 14 days followed by glucose challenge at 4 hrs post last dose and measured after 10 to 90 mins by OGTT. Type of data set: functional, organism-based.
The subject of data set [22] is Mus musculus. The data set is described as follows: Antidiabetic activity in diet induced obese C57Bl/6J mouse model assessed as reduction in peak blood glucose level at 25 mg/kg, po administered twice daily for 14 days followed by glucose challenge at 4 hrs post last dose and measured after 10 to 90 mins by OGTT. It is filed as functional, organism-based.
The test system of data set [23] is Mus musculus. The data set is described as follows: Antidiabetic activity in diet induced obese C57Bl/6J mouse model assessed as change in blood glucose AUC at 25 mg/kg, po administered twice daily for 14 days followed by glucose challenge at 4 hrs post last dose and measured after 10 to 90 mins by OGTT. Type of data set: functional, organism-based.
A short description of data set [24]: Toxicity in diet induced obese C57Bl/6J mouse model assessed as bloating of gastrointestinal tract at 50 mg/kg, po administered twice daily for 14 days. Type of data set: organism-based. The conditions noted are these: in vivo.
A short description of data set [25]: Drug metabolism in mouse microsomes. It is filed as ADME, Microsome. The conditions noted are these: read-out: Drug metabolism.
The nature of data set [26]: Drug metabolism in human hepatocytes assessed per million cells. Type of data set: ADME, cell-based, Hepatocyte.
Data set [27] is described as follows: Toxicity in NSG mouse assessed as adverse effect at 40 mg/kg administered once daily for 21 days. It is filed as organism-based. The settings on record: in vivo.
Data set [28] deals with T5, Receptor-interacting serine/threonine-protein kinase 4 (Homo sapiens, UniProt P57078).
T5 sequence (P57078 whole entry): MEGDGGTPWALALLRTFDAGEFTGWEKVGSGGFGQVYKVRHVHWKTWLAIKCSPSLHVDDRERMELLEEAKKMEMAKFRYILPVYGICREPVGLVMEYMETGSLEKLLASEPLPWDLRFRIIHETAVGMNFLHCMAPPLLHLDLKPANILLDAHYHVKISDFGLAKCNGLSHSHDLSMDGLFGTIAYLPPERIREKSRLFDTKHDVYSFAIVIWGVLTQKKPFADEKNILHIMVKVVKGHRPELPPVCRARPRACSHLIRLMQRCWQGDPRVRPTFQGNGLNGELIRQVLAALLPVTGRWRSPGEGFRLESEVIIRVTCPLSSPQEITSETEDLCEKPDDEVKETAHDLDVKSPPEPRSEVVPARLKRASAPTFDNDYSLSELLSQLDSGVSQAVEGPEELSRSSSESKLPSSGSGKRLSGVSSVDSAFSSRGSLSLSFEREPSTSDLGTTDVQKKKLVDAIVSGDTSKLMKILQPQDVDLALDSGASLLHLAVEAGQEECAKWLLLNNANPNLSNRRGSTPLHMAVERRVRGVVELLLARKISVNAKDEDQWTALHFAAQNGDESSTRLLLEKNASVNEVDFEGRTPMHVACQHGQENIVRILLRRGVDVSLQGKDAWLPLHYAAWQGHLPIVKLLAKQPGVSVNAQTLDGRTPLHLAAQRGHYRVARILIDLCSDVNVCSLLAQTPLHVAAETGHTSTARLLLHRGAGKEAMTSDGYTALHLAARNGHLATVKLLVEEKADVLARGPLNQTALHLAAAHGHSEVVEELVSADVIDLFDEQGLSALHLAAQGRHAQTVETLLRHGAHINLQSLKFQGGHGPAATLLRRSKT

The target of data set [29] is T6, Dual specificity mitogen-activated protein kinase kinase 5 (Homo sapiens, UniProt Q13163).
T6 sequence (Q13163 whole entry): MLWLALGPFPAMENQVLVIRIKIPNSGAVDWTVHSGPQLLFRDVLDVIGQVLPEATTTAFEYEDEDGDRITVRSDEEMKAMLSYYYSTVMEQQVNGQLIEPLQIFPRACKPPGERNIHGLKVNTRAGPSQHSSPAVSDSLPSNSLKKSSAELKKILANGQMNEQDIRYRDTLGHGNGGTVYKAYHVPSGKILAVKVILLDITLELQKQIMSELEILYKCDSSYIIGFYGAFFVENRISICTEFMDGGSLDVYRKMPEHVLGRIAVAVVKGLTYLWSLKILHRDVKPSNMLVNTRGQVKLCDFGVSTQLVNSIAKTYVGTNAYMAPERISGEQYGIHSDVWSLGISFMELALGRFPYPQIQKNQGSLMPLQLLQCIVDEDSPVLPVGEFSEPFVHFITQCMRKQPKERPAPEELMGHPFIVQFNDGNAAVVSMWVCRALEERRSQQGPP

Data set [30] addresses Phosphatidylinositol 4-phosphate 5-kinase type-1 gamma (Homo sapiens, UniProt O60331).
The target of data set [31] is Mitogen-activated protein kinase kinase kinase 11 (Homo sapiens, UniProt Q16584).
The nature of data set [32]: in vivo. The conditions noted are these: Crl:CD Sprague-Dawley, rat, iv, 1 mg/kg.

Calls of active or inactive are those of the source. The rule behind the calls is not given here.

Data on three compounds can be found in ChEMBL document CHEMBL4627396 (J Med Chem, 2020).

One may read the IC50 as the concentration needed to halve the response being measured. One may read the ΔTm as the change in melting temperature against a reference sample. As usually defined, the Vd is the apparent volume that relates the amount in the body to the concentration in plasma or blood. Read a low Vd as little distribution into tissue.

Sequence of Cytochrome P450 3A4 (P08684 whole entry): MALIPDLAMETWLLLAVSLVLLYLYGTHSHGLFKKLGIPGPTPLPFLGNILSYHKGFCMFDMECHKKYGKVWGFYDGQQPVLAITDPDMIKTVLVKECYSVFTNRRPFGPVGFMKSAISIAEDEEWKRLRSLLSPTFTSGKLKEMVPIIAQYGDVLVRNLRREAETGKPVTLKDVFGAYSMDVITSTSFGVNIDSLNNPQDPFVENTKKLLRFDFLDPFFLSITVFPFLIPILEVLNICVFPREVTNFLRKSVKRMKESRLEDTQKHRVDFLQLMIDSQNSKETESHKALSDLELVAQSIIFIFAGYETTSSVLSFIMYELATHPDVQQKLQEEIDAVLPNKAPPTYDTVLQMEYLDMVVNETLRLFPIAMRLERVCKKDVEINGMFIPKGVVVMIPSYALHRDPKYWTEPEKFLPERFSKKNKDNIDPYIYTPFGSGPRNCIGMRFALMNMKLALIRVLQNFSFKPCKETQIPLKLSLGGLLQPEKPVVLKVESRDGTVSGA
Sequence of Cytochrome P450 2D6 (P10635 whole entry): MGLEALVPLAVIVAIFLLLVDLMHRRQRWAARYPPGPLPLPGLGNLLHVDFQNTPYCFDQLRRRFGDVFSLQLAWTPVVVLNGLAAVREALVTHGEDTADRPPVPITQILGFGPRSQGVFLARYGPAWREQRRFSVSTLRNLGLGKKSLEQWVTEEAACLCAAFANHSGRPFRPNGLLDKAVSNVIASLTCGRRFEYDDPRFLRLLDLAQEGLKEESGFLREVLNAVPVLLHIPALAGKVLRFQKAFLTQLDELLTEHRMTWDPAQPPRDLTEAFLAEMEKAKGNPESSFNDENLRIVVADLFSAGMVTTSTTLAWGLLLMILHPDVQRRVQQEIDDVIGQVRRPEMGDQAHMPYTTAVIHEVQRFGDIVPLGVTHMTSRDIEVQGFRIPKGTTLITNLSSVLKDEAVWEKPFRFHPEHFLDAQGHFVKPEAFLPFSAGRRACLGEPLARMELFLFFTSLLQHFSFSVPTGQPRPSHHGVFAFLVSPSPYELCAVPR
Sequence of Mitogen-activated protein kinase kinase kinase 11 (Q16584 whole entry): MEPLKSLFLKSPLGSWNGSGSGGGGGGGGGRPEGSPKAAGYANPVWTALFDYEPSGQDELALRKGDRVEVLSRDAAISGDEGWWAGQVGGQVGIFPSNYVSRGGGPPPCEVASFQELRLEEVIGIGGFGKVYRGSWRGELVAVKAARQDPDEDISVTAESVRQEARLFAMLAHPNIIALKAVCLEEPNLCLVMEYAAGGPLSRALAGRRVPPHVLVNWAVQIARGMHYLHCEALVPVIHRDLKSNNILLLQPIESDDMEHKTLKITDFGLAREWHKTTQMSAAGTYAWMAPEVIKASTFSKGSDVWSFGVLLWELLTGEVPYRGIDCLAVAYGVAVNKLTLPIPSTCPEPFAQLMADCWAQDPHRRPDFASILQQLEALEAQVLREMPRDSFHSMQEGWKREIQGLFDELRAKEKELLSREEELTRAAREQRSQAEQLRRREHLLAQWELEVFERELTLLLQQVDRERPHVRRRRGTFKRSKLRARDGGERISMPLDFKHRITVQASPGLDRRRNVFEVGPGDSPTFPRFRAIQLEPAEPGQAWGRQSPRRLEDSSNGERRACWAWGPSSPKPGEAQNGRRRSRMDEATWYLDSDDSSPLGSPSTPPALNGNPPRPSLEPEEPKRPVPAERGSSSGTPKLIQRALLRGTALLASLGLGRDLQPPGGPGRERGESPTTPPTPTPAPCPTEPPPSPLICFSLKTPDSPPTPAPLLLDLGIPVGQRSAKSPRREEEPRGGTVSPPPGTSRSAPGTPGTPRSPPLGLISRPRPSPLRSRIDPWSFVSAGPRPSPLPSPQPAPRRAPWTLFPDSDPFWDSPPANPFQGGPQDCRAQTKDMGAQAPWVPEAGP
Sequence of Death-associated protein kinase 3 (Homo sapiens) (O43293 whole entry, looked up): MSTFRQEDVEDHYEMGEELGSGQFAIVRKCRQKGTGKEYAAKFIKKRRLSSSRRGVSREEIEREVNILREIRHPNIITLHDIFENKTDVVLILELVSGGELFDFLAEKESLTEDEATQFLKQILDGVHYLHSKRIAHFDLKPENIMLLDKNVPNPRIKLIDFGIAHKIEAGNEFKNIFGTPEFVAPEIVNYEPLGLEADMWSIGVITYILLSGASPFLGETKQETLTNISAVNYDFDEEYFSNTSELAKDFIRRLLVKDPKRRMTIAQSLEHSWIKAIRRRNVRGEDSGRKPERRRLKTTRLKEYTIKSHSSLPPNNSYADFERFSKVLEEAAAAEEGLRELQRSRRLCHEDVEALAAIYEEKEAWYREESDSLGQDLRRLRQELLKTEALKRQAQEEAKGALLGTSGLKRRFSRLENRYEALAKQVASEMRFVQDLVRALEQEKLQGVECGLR
Sequence of Glycogen synthase kinase-3 beta (Homo sapiens) (P49841 whole entry, looked up): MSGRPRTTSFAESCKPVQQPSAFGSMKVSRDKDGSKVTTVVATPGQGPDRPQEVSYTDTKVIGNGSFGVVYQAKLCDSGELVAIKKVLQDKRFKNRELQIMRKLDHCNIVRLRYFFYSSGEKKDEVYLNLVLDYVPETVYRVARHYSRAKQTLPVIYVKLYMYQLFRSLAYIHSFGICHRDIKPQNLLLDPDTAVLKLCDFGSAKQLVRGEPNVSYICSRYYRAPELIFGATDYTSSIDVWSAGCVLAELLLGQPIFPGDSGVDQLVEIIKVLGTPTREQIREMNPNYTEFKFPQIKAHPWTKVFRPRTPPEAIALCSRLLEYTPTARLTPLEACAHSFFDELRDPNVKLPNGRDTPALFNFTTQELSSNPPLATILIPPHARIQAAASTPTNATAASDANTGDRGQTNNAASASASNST
Sequence of Phosphatidylinositol 4-phosphate 5-kinase type-1 gamma (O60331 whole entry): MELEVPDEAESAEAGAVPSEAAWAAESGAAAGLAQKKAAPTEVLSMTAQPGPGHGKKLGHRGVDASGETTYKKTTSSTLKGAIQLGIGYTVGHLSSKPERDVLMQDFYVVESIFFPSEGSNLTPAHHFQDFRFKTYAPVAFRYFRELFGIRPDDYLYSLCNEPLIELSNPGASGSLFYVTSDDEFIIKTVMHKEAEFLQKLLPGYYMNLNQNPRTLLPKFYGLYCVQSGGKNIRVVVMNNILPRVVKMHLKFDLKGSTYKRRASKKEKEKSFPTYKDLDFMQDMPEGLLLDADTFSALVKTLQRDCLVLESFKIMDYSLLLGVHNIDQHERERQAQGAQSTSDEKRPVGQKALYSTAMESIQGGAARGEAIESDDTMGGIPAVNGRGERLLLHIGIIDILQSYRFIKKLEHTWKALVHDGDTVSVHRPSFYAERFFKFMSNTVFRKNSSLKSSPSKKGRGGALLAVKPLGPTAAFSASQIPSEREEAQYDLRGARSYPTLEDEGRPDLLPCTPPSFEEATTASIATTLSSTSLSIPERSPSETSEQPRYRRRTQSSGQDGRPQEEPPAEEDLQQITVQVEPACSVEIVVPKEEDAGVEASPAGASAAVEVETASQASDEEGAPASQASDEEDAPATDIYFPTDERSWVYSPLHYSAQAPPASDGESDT
Sequence of Calcium/calmodulin-dependent protein kinase type 1D (Homo sapiens) (Q8IU85 whole entry, looked up): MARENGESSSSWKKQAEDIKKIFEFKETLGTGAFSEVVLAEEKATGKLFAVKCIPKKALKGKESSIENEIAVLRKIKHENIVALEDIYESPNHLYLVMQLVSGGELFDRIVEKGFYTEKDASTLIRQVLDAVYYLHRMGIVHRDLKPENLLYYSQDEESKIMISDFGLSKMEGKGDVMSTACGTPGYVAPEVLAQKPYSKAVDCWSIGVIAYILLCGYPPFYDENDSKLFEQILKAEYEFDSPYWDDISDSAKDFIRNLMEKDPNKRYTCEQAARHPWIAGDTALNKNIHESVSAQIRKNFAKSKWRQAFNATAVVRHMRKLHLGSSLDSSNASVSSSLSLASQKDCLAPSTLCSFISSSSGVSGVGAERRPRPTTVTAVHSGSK

The compound `NCCNc1ncc(C(N)=O)c(Nc2cccc(C(F)(F)F)c2)n1` gave an IC50 in [1] of 0.007 µM. In addition, the ΔTm in data set [2] is 5.44 °C; in [3] it was 7.51 °C; in data set [4] it was 4.05 °C; in [5] it was 3.4 °C; in data set [6], 1.34 °C; in data set [7], 0.11 °C.

Turning to `CC(C)(C#N)c1cc(Nc2nc(N3CCC[C@H](N)C3)ncc2C(N)=O)cc(C(C)(C)C#N)c1`, the values for the microsomal CLint in [8] and in data set [9] were below 1 µL/min/mg and 13 µL/min/mg, respectively. The Drug metabolism in data set [10] is 11 µL/min; in [15], “Metabolite_Detected”; in [16], “Metabolite_Detected”; in data set [17], “Metabolite_Detected”. The IC50 in data set [11], in data set [12] and in data set [13] was above 20 µM in each case. In [14], the Drug excretion entry is on record as “Metabolite_Detected”. The outcome in data set [18], in data set [19], in [20], in [21] and in data set [22] was Active. Besides, the outcome in data set [23] was inactive. Besides, the Activity result in [24] was “Toxic”.

As for `CC(C)c1cc(Nc2nc(N3CCC[C@H](N)C3)ncc2C(N)=O)cc(C(C)C)n1`, the microsomal CLint in [25] was found to be 6 µL/min/mg; in [8] it was 3 µL/min/mg. The Drug metabolism in [26] was found to be 19 µL/min. The IC50 in [11] was above 20 µM; in data set [12], above 20 µM; in data set [13] it was above 20 µM; in data set [28] it was 5.69 µM; in data set [29] it was 0.025 µM; in data set [30], 11.2 µM. For the same compound, it took 2.75 µM to reach half-maximal inhibition in data set [31] (IC50). Moreover, the Activity entry in [27] was “Non-Toxic”. In data set [32], this compound yielded a Vd of 18.5 L/kg.
